Numbers after ± are expanded uncertainties.
Legend:
[1] = wn = mass fraction of the nth substance listed; settings: 101.33 kPa, Liquid; for speed of sound: Pulse-echo method; for mass density: Vibrating tube method
[2] = 298.15 K; 101.33 kPa; Liquid; Vibrating tube method

Compound | speed of sound ([1]; 293.15 K, w2 = 0.7) | speed of sound ([1]; 293.15 K, w2 = 0.8) | speed of sound ([1]; 293.15 K, w2 = 0.9) | mass density ([1]; 293.15 K, w2 = 0.7) | mass density ([1]; 293.15 K, w2 = 0.8) | mass density ([1]; 293.15 K, w2 = 0.9) | viscosity ([1]; 293.15 K, w2 = 0.7) | viscosity ([1]; 293.15 K, w2 = 0.8) | viscosity ([1]; 293.15 K, w2 = 0.9) | speed of sound ([1]; 303.15 K, w2 = 0.7) | speed of sound ([1]; 303.15 K, w2 = 0.8) | speed of sound ([1]; 303.15 K, w2 = 0.9) | mass density ([1]; 303.15 K, w2 = 0.7) | mass density ([1]; 303.15 K, w2 = 0.8) | mass density ([1]; 303.15 K, w2 = 0.9) | viscosity ([1]; 303.15 K, w2 = 0.7) | viscosity ([1]; 303.15 K, w2 = 0.8) | viscosity ([1]; 303.15 K, w2 = 0.9) | speed of sound ([1]; 313.15 K, w2 = 0.7) | speed of sound ([1]; 313.15 K, w2 = 0.8) | other results
CCN1CCCC1=O [1-ethyl-2-pyrrolidinone] + NCCO | 1653.3 ± 2.6 m/s | 1679.7 ± 2.6 m/s | 1706.9 ± 2.7 m/s | 1009.04 ± 0.66 kg/m3 | 1011.7 ± 0.64 kg/m3 | 1014.01 ± 0.63 kg/m3 | 12.25 ± 0.24 mPa·s | 16.01 ± 0.3 mPa·s | 19.95 ± 0.36 mPa·s | 1618.6 ± 2.6 m/s | 1645.9 ± 2.6 m/s | 1674 ± 2.7 m/s | 1000.7 ± 0.66 kg/m3 | 1003.49 ± 0.64 kg/m3 | 1005.95 ± 0.62 kg/m3 | 8.104 ± 0.17 mPa·s | 10.27 ± 0.2 mPa·s | 12.48 ± 0.23 mPa·s | 1584 ± 2.6 m/s | 1611.7 ± 2.6 m/s | speed of sound ([1]; 313.15 K, w2 = 0.9): 1641.2 ± 2.7 m/s; mass density ([1]; 313.15 K, w2 = 0.7): 992.31 ± 0.66 kg/m3; mass density ([1]; 313.15 K, w2 = 0.8): 995.23 ± 0.63 kg/m3; mass density ([1]; 313.15 K, w2 = 0.9): 997.83 ± 0.62 kg/m3; viscosity ([1]; 313.15 K, w2 = 0.7): 5.666 ± 0.12 mPa·s; viscosity ([1]; 313.15 K, w2 = 0.8): 6.967 ± 0.14 mPa·s; viscosity ([1]; 313.15 K, w2 = 0.9): 8.35 ± 0.17 mPa·s; speed of sound ([1]; 323.15 K, w2 = 0.7): 1549.5 ± 2.6 m/s; speed of sound ([1]; 323.15 K, w2 = 0.8): 1578.2 ± 2.6 m/s; speed of sound ([1]; 323.15 K, w2 = 0.9): 1608 ± 2.7 m/s; mass density ([1]; 323.15 K, w2 = 0.7): 983.87 ± 0.65 kg/m3; mass density ([1]; 323.15 K, w2 = 0.8): 986.93 ± 0.63 kg/m3; mass density ([1]; 323.15 K, w2 = 0.9): 989.65 ± 0.61 kg/m3; viscosity ([1]; 323.15 K, w2 = 0.7): 4.173 ± 0.095 mPa·s; viscosity ([1]; 323.15 K, w2 = 0.8): 5.017 ± 0.11 mPa·s; viscosity ([1]; 323.15 K, w2 = 0.9): 5.863 ± 0.13 mPa·s
CCN1CCCC1=O [1-ethyl-2-pyrrolidinone] + O | 1671.7 ± 2.6 m/s | 1620 ± 2.6 m/s | 1555.7 ± 2.5 m/s | 1013.82 ± 0.58 kg/m3 | 1007.67 ± 0.57 kg/m3 | 1002.08 ± 0.57 kg/m3 | 2.857 ± 0.065 mPa·s | 2.068 ± 0.048 mPa·s | 1.474 ± 0.035 mPa·s | 1658.9 ± 2.6 m/s | 1620 ± 2.6 m/s | 1568.9 ± 2.5 m/s | 1008.12 ± 0.58 kg/m3 | 1003.22 ± 0.57 kg/m3 | 998.33 ± 0.57 kg/m3 | 2.03 ± 0.05 mPa·s | 1.52 ± 0.04 mPa·s | 1.123 ± 0.027 mPa·s | 1644 ± 2.6 m/s | 1616.3 ± 2.6 m/s | speed of sound ([1]; 313.15 K, w2 = 0.9): 1576.8 ± 2.5 m/s; mass density ([1]; 313.15 K, w2 = 0.7): 1001.9 ± 0.58 kg/m3; mass density ([1]; 313.15 K, w2 = 0.8): 998.11 ± 0.57 kg/m3; mass density ([1]; 313.15 K, w2 = 0.9): 994.6 ± 0.57 kg/m3; viscosity ([1]; 313.15 K, w2 = 0.7): 1.522 ± 0.036 mPa·s; viscosity ([1]; 313.15 K, w2 = 0.8): 1.176 ± 0.029 mPa·s; viscosity ([1]; 313.15 K, w2 = 0.9): 0.891 ± 0.022 mPa·s; speed of sound ([1]; 323.15 K, w2 = 0.7): 1627.1 ± 2.6 m/s; speed of sound ([1]; 323.15 K, w2 = 0.8): 1608.9 ± 2.6 m/s; speed of sound ([1]; 323.15 K, w2 = 0.9): 1580.3 ± 2.5 m/s; mass density ([1]; 323.15 K, w2 = 0.7): 995.12 ± 0.58 kg/m3; mass density ([1]; 323.15 K, w2 = 0.8): 992.41 ± 0.57 kg/m3; mass density ([1]; 323.15 K, w2 = 0.9): 989.74 ± 0.57 kg/m3; viscosity ([1]; 323.15 K, w2 = 0.7): 1.196 ± 0.029 mPa·s; viscosity ([1]; 323.15 K, w2 = 0.8): 0.942 ± 0.024 mPa·s; viscosity ([1]; 323.15 K, w2 = 0.9): 0.73 ± 0.02 mPa·s
NCCO [2-aminoethan-1-ol] | – | – | – | – | – | – | – | – | – | – | – | – | – | – | – | – | – | – | – | – | mass density [2]: 1011.98 ± 0.46 kg/m3
